Source: patent publication US10670605B2, “Cysteine reactive probes and uses thereof” (The Scripps Research Institute, priority 2015, dated 2020)
Where a name gives a salt, the structure may show the parent alone.

Key:
Test in all cases: isoTOP-ABPP of compound-treated primary human T cells
Type in all cases: cell-based
[1] = target: Cys residues in primary human T cells (Homo sapiens, UniProt Q96CW5); conditions: TUBGCP3 C194 (Q960W5)
[2] = target: T1, Cys residues in primary human T cells (Homo sapiens, UniProt Q96GW9); conditions: MARS2 C425 (Q96GW9)
T1 sequence (Q96GW9 30-593): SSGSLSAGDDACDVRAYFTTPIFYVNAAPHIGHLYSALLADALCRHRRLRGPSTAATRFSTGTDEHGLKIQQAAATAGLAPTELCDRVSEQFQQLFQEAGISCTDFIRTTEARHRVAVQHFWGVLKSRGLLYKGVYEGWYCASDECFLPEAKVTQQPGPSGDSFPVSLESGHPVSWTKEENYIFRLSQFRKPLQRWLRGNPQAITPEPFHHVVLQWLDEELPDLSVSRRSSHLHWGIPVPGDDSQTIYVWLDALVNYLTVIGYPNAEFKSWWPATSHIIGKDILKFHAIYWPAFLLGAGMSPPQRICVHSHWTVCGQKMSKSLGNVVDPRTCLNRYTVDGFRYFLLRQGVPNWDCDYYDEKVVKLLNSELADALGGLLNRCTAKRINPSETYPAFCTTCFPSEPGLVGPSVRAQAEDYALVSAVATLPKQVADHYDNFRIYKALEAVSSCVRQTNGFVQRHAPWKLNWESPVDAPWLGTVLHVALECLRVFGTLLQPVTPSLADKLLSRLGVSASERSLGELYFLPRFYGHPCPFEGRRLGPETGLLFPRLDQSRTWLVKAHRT

[3] = target: Cys residues in primary human T cells (Homo sapiens, UniProt Q7Z6Z7); conditions: HUWE1 C3372 (Q7Z6Z7)
Chain of Cys residues in primary human T cells (Homo sapiens, UniProt Q7Z6Z7) (Q7Z6Z7 whole entry): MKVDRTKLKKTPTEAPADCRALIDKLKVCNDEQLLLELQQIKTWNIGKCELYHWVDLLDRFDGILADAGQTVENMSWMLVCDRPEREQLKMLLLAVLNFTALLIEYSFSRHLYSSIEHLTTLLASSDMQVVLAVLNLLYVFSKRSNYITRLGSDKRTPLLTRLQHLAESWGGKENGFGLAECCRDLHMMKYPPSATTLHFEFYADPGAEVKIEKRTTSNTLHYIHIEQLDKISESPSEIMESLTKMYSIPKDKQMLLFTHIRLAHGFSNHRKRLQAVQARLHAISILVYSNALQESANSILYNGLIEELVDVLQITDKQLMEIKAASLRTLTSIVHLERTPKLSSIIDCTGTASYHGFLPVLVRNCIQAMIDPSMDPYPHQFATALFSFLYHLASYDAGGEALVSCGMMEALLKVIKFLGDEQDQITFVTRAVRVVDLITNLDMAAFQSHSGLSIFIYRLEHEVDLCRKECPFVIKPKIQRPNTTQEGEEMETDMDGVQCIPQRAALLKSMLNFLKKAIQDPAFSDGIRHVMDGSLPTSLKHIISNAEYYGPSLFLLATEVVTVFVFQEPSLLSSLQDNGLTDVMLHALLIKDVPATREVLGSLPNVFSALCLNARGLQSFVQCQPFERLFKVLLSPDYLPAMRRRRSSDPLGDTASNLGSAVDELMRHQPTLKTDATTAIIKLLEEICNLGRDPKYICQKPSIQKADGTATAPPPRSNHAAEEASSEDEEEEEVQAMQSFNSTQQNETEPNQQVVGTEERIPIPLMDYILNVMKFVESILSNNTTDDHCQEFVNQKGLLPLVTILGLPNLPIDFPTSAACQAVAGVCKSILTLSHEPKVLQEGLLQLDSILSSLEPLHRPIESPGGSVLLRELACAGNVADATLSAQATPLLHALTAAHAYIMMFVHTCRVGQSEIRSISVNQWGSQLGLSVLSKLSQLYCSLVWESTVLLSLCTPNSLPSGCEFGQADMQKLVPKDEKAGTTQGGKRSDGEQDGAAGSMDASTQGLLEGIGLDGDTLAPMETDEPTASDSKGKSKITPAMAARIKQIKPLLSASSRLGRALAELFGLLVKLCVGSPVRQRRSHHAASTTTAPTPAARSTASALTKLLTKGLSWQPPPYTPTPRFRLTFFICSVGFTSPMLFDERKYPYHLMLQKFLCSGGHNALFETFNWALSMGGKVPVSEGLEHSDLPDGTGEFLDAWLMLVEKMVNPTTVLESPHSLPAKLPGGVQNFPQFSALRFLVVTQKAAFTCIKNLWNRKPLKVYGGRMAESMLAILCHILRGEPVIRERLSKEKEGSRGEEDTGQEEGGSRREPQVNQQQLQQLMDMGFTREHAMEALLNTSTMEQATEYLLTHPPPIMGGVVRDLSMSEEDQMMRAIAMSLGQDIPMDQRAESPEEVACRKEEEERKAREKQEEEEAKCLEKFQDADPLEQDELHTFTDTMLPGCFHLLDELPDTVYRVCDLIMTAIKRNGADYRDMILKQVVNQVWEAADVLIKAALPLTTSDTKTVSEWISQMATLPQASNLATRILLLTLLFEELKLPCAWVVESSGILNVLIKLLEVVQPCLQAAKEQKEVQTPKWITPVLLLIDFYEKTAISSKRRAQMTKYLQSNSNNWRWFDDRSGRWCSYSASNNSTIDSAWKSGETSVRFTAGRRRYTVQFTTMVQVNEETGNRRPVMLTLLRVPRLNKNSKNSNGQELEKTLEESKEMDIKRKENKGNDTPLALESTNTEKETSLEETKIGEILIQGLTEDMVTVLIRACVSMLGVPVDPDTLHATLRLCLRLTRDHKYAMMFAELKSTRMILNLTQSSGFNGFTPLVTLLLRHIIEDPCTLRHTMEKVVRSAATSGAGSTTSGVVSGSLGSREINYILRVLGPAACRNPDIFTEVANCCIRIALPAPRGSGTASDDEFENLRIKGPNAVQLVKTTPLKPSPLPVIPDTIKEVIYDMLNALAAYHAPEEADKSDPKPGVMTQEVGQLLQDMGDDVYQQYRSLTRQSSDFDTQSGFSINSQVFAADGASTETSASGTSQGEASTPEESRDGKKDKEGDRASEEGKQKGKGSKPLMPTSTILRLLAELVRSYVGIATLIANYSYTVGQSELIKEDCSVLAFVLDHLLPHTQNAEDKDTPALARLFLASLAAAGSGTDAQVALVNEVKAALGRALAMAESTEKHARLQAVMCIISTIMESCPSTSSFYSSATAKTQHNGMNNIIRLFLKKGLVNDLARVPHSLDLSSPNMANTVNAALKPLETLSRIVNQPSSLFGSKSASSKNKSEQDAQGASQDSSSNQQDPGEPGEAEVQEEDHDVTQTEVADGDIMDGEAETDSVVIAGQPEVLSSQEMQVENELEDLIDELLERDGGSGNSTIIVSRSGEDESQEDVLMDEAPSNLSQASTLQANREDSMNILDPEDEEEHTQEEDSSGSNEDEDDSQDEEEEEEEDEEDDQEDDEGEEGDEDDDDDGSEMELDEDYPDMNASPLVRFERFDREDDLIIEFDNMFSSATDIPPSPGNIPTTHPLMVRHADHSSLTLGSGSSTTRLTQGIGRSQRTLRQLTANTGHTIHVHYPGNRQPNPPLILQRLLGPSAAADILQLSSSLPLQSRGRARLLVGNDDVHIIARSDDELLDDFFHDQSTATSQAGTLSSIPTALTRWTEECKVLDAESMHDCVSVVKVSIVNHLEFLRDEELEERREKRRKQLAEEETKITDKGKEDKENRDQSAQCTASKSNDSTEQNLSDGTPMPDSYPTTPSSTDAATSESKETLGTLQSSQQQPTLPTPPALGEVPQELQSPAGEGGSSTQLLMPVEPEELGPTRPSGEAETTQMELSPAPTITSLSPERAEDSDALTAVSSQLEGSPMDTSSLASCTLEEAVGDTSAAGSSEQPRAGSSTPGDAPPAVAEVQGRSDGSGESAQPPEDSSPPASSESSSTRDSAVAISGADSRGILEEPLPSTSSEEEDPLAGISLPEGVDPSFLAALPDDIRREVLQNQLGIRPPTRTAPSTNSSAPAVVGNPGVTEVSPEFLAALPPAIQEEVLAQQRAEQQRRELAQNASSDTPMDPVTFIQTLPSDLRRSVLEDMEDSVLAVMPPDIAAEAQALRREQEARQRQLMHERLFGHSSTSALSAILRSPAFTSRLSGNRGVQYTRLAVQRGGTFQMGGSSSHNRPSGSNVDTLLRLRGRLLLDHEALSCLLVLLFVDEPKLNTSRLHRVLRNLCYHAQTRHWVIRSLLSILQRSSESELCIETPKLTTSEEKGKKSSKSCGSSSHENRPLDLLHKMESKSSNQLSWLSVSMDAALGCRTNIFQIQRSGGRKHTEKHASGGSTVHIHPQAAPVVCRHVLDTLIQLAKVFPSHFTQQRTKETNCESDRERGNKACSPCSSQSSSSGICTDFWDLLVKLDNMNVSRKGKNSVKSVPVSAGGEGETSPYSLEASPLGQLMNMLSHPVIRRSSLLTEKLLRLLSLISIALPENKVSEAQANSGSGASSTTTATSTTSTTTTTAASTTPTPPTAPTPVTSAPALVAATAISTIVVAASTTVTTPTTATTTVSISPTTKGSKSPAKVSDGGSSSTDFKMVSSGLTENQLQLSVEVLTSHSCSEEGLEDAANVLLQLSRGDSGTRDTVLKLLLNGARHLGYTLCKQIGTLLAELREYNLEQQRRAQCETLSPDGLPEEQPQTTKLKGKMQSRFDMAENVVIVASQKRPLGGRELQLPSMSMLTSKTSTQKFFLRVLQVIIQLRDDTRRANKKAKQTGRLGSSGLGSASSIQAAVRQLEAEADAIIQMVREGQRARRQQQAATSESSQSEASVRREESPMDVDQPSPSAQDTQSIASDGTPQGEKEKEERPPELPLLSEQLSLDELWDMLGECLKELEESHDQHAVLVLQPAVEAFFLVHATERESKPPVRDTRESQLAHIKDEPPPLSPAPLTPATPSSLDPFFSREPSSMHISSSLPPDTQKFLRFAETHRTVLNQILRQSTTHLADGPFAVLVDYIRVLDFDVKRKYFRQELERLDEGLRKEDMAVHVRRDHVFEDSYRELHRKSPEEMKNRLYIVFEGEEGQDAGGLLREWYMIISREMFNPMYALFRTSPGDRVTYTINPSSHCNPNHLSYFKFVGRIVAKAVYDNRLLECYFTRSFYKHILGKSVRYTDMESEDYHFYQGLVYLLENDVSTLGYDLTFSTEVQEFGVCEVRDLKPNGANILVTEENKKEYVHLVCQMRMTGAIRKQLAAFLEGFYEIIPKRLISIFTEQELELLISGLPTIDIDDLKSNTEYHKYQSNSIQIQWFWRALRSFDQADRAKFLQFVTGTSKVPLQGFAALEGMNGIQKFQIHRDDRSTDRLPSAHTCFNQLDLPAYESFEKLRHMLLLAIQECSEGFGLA

[4] = target: T2, Cys residues in primary human T cells (Homo sapiens, UniProt P54136); conditions: RARS C32 (P54136)
T2 sequence (P54136 1-660): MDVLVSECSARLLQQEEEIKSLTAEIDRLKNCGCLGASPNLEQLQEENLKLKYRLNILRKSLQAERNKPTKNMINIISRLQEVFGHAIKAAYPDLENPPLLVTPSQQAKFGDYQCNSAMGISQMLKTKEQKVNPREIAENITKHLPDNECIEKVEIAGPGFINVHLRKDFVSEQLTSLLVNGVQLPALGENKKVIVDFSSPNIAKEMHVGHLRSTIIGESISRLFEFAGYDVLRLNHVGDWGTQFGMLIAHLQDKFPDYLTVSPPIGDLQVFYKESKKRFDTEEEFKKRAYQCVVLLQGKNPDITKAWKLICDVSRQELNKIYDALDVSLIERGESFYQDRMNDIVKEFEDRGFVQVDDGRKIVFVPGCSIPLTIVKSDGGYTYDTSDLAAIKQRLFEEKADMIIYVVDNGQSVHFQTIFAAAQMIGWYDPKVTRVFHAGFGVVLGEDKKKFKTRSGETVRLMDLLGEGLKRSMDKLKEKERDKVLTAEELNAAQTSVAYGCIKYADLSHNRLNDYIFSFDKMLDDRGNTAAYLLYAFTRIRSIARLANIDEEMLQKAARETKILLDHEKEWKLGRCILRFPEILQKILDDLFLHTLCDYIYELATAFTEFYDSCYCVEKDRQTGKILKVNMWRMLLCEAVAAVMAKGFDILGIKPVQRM

[5] = target: T3, Cys residues in primary human T cells (Homo sapiens, UniProt P11216); conditions: PYGB C326 (P11216)
T3 sequence (P11216 1-843): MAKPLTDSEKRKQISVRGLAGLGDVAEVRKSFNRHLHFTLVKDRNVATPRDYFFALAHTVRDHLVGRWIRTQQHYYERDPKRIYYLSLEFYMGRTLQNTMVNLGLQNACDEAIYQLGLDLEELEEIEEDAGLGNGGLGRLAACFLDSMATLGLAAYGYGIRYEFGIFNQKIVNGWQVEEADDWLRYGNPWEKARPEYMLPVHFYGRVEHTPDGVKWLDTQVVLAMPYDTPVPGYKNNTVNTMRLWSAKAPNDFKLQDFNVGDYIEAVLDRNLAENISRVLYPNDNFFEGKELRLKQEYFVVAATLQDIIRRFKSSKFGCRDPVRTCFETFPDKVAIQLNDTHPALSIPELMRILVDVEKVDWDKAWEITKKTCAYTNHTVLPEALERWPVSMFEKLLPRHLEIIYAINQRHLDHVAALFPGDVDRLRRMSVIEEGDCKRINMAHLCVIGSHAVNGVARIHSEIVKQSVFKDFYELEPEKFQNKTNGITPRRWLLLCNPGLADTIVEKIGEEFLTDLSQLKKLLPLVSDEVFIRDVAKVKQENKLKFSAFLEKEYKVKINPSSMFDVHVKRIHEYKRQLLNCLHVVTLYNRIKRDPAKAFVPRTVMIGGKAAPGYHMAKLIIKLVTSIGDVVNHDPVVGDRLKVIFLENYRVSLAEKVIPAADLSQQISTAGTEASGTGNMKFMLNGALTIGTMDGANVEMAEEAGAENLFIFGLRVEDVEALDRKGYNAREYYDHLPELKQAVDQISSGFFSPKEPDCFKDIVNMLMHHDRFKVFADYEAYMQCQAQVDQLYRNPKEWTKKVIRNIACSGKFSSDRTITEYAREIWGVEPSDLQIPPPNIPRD

COC(=O)/C=C/C(=O)OC [DMF, dimethyl fumarate]
R value (DMSO/DMF) ([1]; DMF 50 μM 2h): 2.44
R value (DMSO/DMF) ([1]; DMF 50 μM 4h): 4.94
R value (DMSO/DMF) ([2]; DMF 10 μM 4h): 1.84
R value (DMSO/DMF) ([2]; DMF 25 μM 4h): 2.86
R value (DMSO/DMF) ([2]; DMF 50 μM 1h): 2.23
R value (DMSO/DMF) ([2]; DMF 50 μM 2h): 4.16
R value (DMSO/DMF) ([2]; DMF 50 μM 4h): 5.3
R value (DMSO/DMF) ([3]; DMF 10 μM 4h): 1.58
R value (DMSO/DMF) ([3]; DMF 50 μM 1h): 2.28
R value (DMSO/DMF) ([3]; DMF 50 μM 2h): 4.43
R value (DMSO/DMF) ([3]; DMF 50 μM 4h): 10.48
R value (DMSO/DMF) ([4]; DMF 10 μM 4h): 0.62
R value (DMSO/DMF) ([4]; DMF 25 μM 4h): 4.03
R value (DMSO/DMF) ([4]; DMF 50 μM 1h): 2.58
R value (DMSO/DMF) ([4]; DMF 50 μM 2h): 3.58
R value (DMSO/DMF) ([4]; DMF 50 μM 4h): 5.02
R value (DMSO/DMF) ([5]; DMF 10 μM 4h): 1.65
R value (DMSO/DMF) ([5]; DMF 25 μM 4h): 3.53
R value (DMSO/DMF) ([5]; DMF 50 μM 1h): 2.47
R value (DMSO/DMF) ([5]; DMF 50 μM 2h): 3.73
R value (DMSO/DMF) ([5]; DMF 50 μM 4h): 6.76
